Results from PMC9203742 (Nature Communications, 2022).

Legend:
mGlu1 P57H/N264H mutant = molecular target: T1, mGlu1 P57H/N264H mutant (Rattus norvegicus, UniProt P23385, N264H/P57H); assay: Fura-2 Ca2+ imaging in HEK293 cells expressing mGlu1 P57H/N264H; format: cell-based; details: 10 μM metal ion or metal complex
T1 construct: expressed in transfected cells; host or cells: HEK293

mGlu1 K61H/N264H mutant = molecular target: T2, mGlu1 K61H/N264H mutant (Rattus norvegicus, UniProt P23385, K61H/N264H); assay: Fura-2 Ca2+ imaging in HEK293 cells expressing mGlu1 K61H/N264H; format: cell-based; details: 10 μM metal ion or metal complex
T2 construct: expressed in transfected cells; host or cells: HEK293

mGlu1 P58H/N264H mutant = molecular target: T3, mGlu1 P58H/N264H mutant (Rattus norvegicus, UniProt P23385, N264H/P58H); assay: Fura-2 Ca2+ imaging in HEK293 cells expressing mGlu1 P58H/N264H; format: cell-based; details: for Receptor activation ([Ca2+]i change, Δratio): 10 μM metal ion or metal complex; for Δratio of 3 µM Pd(bpy)-induced response, ave / Δratio of 10 µM glutamate-induced response, ave: n = 20
T3 construct: expressed in transfected cells; host or cells: HEK293

mGlu1 A59H/N264H mutant = molecular target: T4, mGlu1 A59H/N264H mutant (Rattus norvegicus, UniProt P23385, A59H/N264H); assay: Fura-2 Ca2+ imaging in HEK293 cells expressing mGlu1 A59H/N264H; format: cell-based; details: 10 μM metal ion or metal complex
T4 construct: expressed in transfected cells; host or cells: HEK293

mGlu1 E60H/N264H mutant = molecular target: T5, mGlu1 E60H/N264H mutant (Rattus norvegicus, UniProt P23385, E60H/N264H); assay: Fura-2 Ca2+ imaging in HEK293 cells expressing mGlu1 E60H/N264H; format: cell-based; details: 10 μM metal ion or metal complex
T5 construct: expressed in transfected cells; host or cells: HEK293

[1] = test system: Purkinje cells in cerebellar slices from mGlu1^+/+ mice; assay: chemLTD recording (PF-EPSC) in Purkinje cells of acute cerebellar slices, mGlu1^+/+ mice; format: cell-based, mouse; details: DHPG 50 μM for 10 min; t = 31−35 min
Method: (§1) Sagittal cerebellar slices were cut with a microslicer (Linear slicer Pro7; DOSAKA EM) in cutting solution buffer and then incubated in ACSF gassed with 5% CO2 and 95% O2 at room temperature.
(§2) Whole-cell patch-clamp recordings were made from visually identified Purkinje cells using a 60× water-immersion objective attached to an upright microscope (BX51WI, Olympus) at room temperature, as described previously. […] Picrotoxin (100 µM; Sigma) was always added to the saline to block inhibitory synaptic transmission.
(§3) To evoke EPSCs derived from CF (CF-EPSCs) and PF (PF-EPSCs) inputs onto Purkinje cells, square pulses were applied through a stimulating electrode placed on the granular layer and the molecular layer (50 µm away from the pial surface), respectively. The selective stimulation of CFs and PFs was confirmed by the paired-pulse depression (PPD) and paired-pulse facilitation (PPF) of EPSC amplitudes at a 50-ms interstimulus interval (ISI), respectively.
(§4) For the LTD sessions, PF-EPSCs were recorded successively at a frequency of 0.1 Hz from Purkinje cells clamped at –80 mV. After a stable PF-EPSC amplitude had been observed for at least 5 min, a conjunctive stimulation that consisted of 30 single PF stimuli together with a 200 ms depolarizing pulse from a holding potential of –60 to +20 mV was applied for LTD induction.
(§5) To chemically induce LTD (chemLTD), 50 µM (S)-3,5-dihydroxyphenylglycine (DHPG) or 1 µM Pd(sulfo-bpy) was applied for 10 min in a current-clamp mode. We often observed a transient decrease in PF-EPSC amplitude after the application of each drug probably because Purkinje cells under current-clamp conditions excite spontaneously to suppress presynaptic function through the retrograde signaling. Access resistances were monitored every 10 s by measuring the peak currents in response to 2 mV, 50-ms hyperpolarizing steps throughout the experiments; the measurements were discarded if the resistance changed by >20% of its original value. The normalized EPSC amplitude on the ordinate represents the EPSC amplitude for the average of six traces for 1 min divided by that of the average of six traces for 1 min immediately before the conjunctive stimulation or the drug application.

[2] = test system: Purkinje cells in cerebellar slices from mGlu1^CBC/CBC mice; assay: chemLTD recording (PF-EPSC) in Purkinje cells of acute cerebellar slices, mGlu1^CBC/CBC mice; format: cell-based, mouse; details: DHPG 50 μM for 10 min; t = 31−35 min
Method: as §1, §2, §3, §4, §5

[3] = test system: MLIs infected with AAV-hSyn-mGlu1^WT; assay: sAP-mediated currents (firing rate) of MLIs infected with AAV-hSyn-mGlu1^WT; format: cell-based, mouse
Method: (§6) To monitor the excitability of MLIs, sAP-mediated current responses were extracellulary recorded by a loose cell-attached voltage-clamp at a holding potential of 0 mV. Glass electrodes used for cell-attached recordings had resistances of 3–5 MΩ when filled with ACSF. The current recordings from AAV-infected cells were performed 1−2 weeks after infection. The EPSCs and sAP-mediated currents were recorded using an Axopatch 200B amplifier (Molecular Devices), and the pClamp system (version 9.2; Molecular Devices) was used for data acquisition and analysis. The signals were filtered at 1 kHz and digitized at 4 kHz for the evoked EPSCs and 10 kHz for the sAP-mediated currents.
(§7) Injection of viral solutions was performed as described previously with slight modifications. Briefly, under deep anesthesia, with an intraperitoneal injection of medetomidine (0.3 mg/kg), midazolam (4.0 mg/kg), and butorphanol (5.0 mg/kg), 4 µL of the solutions containing AAV mixture were directly injected into the vermis of cerebellar lobules V-VIII (200-300 µm in depth, 12 µL/h in rate) of WT mice (C57BL/6J, P20-P30) using glass pipette (30–40 µm in diameter) and microinjector (Nanoliter; World Precision Instruments). In all, 1−2 week after injection, the mice were used for each experiment.

[4] = test system: MLIs infected with AAV-hSyn-mGlu1^CBC; assay: sAP-mediated currents (firing rate) of MLIs infected with AAV-hSyn-mGlu1^CBC; format: cell-based, mouse
Method: as §6, §7

mGlu1(N264H) mutant = molecular target: T6, mGlu1(N264H) mutant (Rattus norvegicus, UniProt P23385, N264H); assay: Fura-2 Ca2+ imaging in HEK293 cells expressing mGlu1(N264H); format: cell-based; details: 10 µM LY367385, 1 µM FITM, 10 µM YM254890 or 1 µM U73122
T6 construct: expressed in transfected cells; host or cells: HEK293

primary cortical neurons = assay: Fura-2 Ca2+ imaging (abnormal Ca2+ response) in cultured cortical neurons; details: co-treated 30 µM LY367385, 1 µM FITM or 10 µM U73122
[5] = Suppl Fig14d, AAV-hSyn-mGlu1WT, mean of 12 cells
[6] = Suppl Fig14d, AAV-hSyn-mGlu1CBC, mean of 15 cells

T1 sequence (P23385 19-1199 P57H/N264H): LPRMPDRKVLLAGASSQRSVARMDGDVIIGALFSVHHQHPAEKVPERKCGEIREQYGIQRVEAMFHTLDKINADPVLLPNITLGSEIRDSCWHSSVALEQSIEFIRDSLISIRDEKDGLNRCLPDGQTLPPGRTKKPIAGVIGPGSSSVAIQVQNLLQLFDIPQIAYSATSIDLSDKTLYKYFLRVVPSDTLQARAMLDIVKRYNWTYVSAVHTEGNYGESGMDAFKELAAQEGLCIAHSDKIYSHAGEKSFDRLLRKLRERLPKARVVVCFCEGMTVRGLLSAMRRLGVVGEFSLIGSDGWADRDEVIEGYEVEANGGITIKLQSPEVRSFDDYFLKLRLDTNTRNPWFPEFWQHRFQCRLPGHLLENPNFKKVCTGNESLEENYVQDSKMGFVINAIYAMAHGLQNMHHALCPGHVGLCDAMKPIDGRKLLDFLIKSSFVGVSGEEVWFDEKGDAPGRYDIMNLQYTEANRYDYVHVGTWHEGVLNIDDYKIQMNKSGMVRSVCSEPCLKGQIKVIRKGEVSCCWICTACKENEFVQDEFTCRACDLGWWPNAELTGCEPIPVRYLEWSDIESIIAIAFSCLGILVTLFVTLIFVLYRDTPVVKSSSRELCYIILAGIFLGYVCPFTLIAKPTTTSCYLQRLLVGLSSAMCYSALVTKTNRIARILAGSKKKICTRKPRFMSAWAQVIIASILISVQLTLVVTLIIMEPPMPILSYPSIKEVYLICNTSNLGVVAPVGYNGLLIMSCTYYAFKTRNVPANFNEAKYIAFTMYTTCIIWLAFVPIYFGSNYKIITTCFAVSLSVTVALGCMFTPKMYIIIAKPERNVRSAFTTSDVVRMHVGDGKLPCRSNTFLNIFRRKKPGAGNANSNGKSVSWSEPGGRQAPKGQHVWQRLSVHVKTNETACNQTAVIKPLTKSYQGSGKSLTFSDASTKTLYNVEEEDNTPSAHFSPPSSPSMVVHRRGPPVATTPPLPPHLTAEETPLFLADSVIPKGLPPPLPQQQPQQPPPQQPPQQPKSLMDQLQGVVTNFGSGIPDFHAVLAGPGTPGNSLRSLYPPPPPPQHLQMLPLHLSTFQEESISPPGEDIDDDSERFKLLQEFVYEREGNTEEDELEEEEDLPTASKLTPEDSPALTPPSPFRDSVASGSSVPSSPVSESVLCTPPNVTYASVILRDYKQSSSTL
T3 sequence (P23385 19-1199 P58H/N264H): as the sequence (P23385 19-1199 P57H/N264H) above, with H39P, P40H counted along it
T5 sequence (P23385 19-1199 E60H/N264H): as the sequence (P23385 19-1199 P57H/N264H) above, with H39P, E42H counted along it
T2 sequence (P23385 19-1199 K61H/N264H): as the sequence (P23385 19-1199 P57H/N264H) above, with H39P, K43H counted along it
T4 sequence (P23385 19-1199 A59H/N264H): as the sequence (P23385 19-1199 P57H/N264H) above, with H39P, A41H counted along it
T6 sequence (P23385 19-1199 N264H): as the sequence (P23385 19-1199 P57H/N264H) above, with H39P counted along it

[Cd+2] [Cd^2+, reference compound]
Receptor activation ([Ca2+]i change, Δratio) (mGlu1 P57H/N264H mutant): failed to activate
Receptor activation ([Ca2+]i change, Δratio) (mGlu1 K61H/N264H mutant): failed to activate
Receptor activation ([Ca2+]i change, Δratio) (mGlu1 P58H/N264H mutant): failed to activate
Receptor activation ([Ca2+]i change, Δratio) (mGlu1 A59H/N264H mutant): failed to activate
Receptor activation ([Ca2+]i change, Δratio) (mGlu1 E60H/N264H mutant): failed to activate

[Cu+2] [Cu^2+, reference compound]
Receptor activation ([Ca2+]i change, Δratio) (mGlu1 P57H/N264H mutant): failed to activate
Receptor activation ([Ca2+]i change, Δratio) (mGlu1 K61H/N264H mutant): failed to activate
Receptor activation ([Ca2+]i change, Δratio) (mGlu1 P58H/N264H mutant): failed to activate
Receptor activation ([Ca2+]i change, Δratio) (mGlu1 A59H/N264H mutant): failed to activate
Receptor activation ([Ca2+]i change, Δratio) (mGlu1 E60H/N264H mutant): failed to activate

N[C@H](C(=O)O)c1cc(O)cc(O)c1 [DHPG, (S)-3,5-dihydroxyphenylglycine]
chemLTD: normalized PF-EPSC amplitude [1]: 55 ± 7%
chemLTD: normalized PF-EPSC amplitude [2]: 56 ± 6%
firing rate, DHPG (50uM), AVE(Hz) ([3]; Suppl Fig14d, AAV-hSyn-mGlu1WT, mean): 10.6722 Hz
DHPG/CTL, AVE [3, 5]: 1.47
sAP events, DHPG (50uM), AVE [3, 5]: 320.167
Number of spontaneous action potentials (sAP) ([3]; bath application of 50 µM DHPG): clearly increased
firing rate, DHPG (50uM), AVE(Hz) ([4]; Suppl Fig14d, AAV-hSyn-mGlu1CBC, mean): 11.5511 Hz
DHPG/CTL, AVE [4, 6]: 1.507
sAP events, DHPG (50uM), AVE [4, 6]: 346.533
Number of spontaneous action potentials (sAP) ([4]; bath application of 50 µM DHPG): clearly increased

Cc1cc(C(=O)O)ccc1[C@H](N)C(=O)O [LY367385, reference compound]
Effect on Pd(bpy)-induced Ca2+ responses (mGlu1 P58H/N264H mutant; 10 μM LY367385, 3 µM Pd(bpy)): inhibited
Δratio of 3 µM Pd(bpy)-induced response, ave (mGlu1 P58H/N264H mutant; [LY367385] 0.1 µM): 0.1859
Δratio of 10 µM glutamate-induced response, ave (mGlu1 P58H/N264H mutant; [LY367385] 0.1 µM): 0.243
Δratio of 3 µM Pd(bpy)-induced response, ave (mGlu1 P58H/N264H mutant; [LY367385] 0.3 µM): 0.1915
Δratio of 10 µM glutamate-induced response, ave (mGlu1 P58H/N264H mutant; [LY367385] 0.3 µM): 0.2897
Δratio of 3 µM Pd(bpy)-induced response, ave (mGlu1 P58H/N264H mutant; [LY367385] 1 µM): 0.262
Δratio of 10 µM glutamate-induced response, ave (mGlu1 P58H/N264H mutant; [LY367385] 1 µM): 0.3662
Δratio of 3 µM Pd(bpy)-induced response, ave (mGlu1 P58H/N264H mutant; [LY367385] 3 µM): 0.1837
Δratio of 10 µM glutamate-induced response, ave (mGlu1 P58H/N264H mutant; [LY367385] 3 µM): 0.2021
Δratio of 3 µM Pd(bpy)-induced response, ave (mGlu1 P58H/N264H mutant; [LY367385] 10 µM): 0.007225
Δratio of 10 µM glutamate-induced response, ave (mGlu1 P58H/N264H mutant; [LY367385] 10 µM): 0.09778
Δratio of 3 µM Pd(bpy)-induced response, ave (mGlu1 P58H/N264H mutant; [LY367385] 30 µM): 0.008008
Δratio of 10 µM glutamate-induced response, ave (mGlu1 P58H/N264H mutant; [LY367385] 30 µM): 0.0409
Δratio of 3 µM Pd(bpy)-induced response, ave (mGlu1 P58H/N264H mutant; [LY367385] 100 µM): 0.01163
Δratio of 10 µM glutamate-induced response, ave (mGlu1 P58H/N264H mutant; [LY367385] 100 µM): 0.05699
Effect on glutamate-induced Ca2+ responses (mGlu1 P58H/N264H mutant; pretreatment with LY367385, 10 µM glutamate): suppressed
Effect of pre-treated inhibitor on 10 µM Pd(bpy)-induced Ca2+ responses (mGlu1(N264H) mutant): inhibited
Effect of inhibitor on 30 µM Pd(bpy)-induced [Ca2+]i elevation (primary cortical neurons): suppressed by neither

[Ni+2] [Ni^2+, reference compound]
Receptor activation ([Ca2+]i change, Δratio) (mGlu1 P57H/N264H mutant): failed to activate
Receptor activation ([Ca2+]i change, Δratio) (mGlu1 K61H/N264H mutant): failed to activate
Receptor activation ([Ca2+]i change, Δratio) (mGlu1 P58H/N264H mutant): failed to activate
Receptor activation ([Ca2+]i change, Δratio) (mGlu1 A59H/N264H mutant): failed to activate
Receptor activation ([Ca2+]i change, Δratio) (mGlu1 E60H/N264H mutant): failed to activate
